Results reported in patent publication US4119710A, “Bronchospasmolytic 1-(p-amino-phenyl)-2-amino-ethanols-(1) and salts” (Boehringer Ingelheim GmbH, priority 1972, dated 1978).
Structures can show the parent of a compound that is named as a salt. Where two headings read alike, the source gives them in different places.

Experiments:
[1] = molecular target: T1, β1 -receptors (Felis catus, UniProt Q9TST6); assay: β1-blocking activity: antagonism to tachycardia provoked by N-isopropyl-noradrenalin sulfate in anesthetized cats; format: in vivo; details: cat, iv
T1 construct: tested on anesthetized cats; from tissue; host or cells: living anesthetized cat, heart (heart rate)
Procedure: (§1) The compounds of this invention were tested for toxicity and with regard to their action on the β-receptors in warm-blooded animals, such as cats and guinea pigs, by the methods described below, and the following test results were obtained for representative species of the genus, where
The β1 -blocking activity was tested on anesthetized cats as antagonism to tachycardia provoked by a standard dose of 1.0 γ/kg i.v. of N-isopropyl-noradrenalin sulfate. From the average percentage reduction in heart rate acceleration caused by N-isopropyl-noradrenalin sulfate, obtained by various doses of the test compound in question, a median effective dose (ED50) was determined by graphic extrapolation (see Tables II and III).

[2] = molecular target: T2, β2 -receptors (Cavia porcellus, UniProt Q8K4Z4); assay: β2-blocking activity: antagonism to broncholytic activity of N-isopropyl-noradrenalin sulfate in anesthetized guinea pigs (Konzett-Rossler); format: in vivo; details: guinea pig, iv, d(+)-isomers, 5 γ/kg i.v. N-isopropyl-noradrenalin sulfate after 20 γ/kg i.v. acetylcholine (Table III), read-out: Blocking Action on β2 -receptors ED50
T2 construct: tested on anesthetized guinea pigs; from tissue; host or cells: living anesthetized guinea pig, airways (Konzett-Rossler)
Procedure: as §1
The β2 -blocking activity was tested on anesthetized guinea pigs as antagonism to the broncholytic activity which is observed upon administration of 5 γ/kg body weight i.v. of N-isopropyl-noradrenalin sulfate in the test arrangement according to Konzett-Rossler, following the inducement of a bronchospasm caused by a standard dose of 20 γ/kg body weight i.v. of acetylcholine (see Table III).

[3] = acute toxicity in mice (LD50, Litchfield and Wilcoxon); details: mouse, in vivo, iv, groups of 10, i.v.
Procedure: as §1
The acute toxicity of the compounds was determined on groups of 10 mice.

[4] = molecular target: T2, β2 -receptors; assay: β2-mimetic activity: antagonism to acetylcholine bronchospasm in anesthetized guinea pigs (Konzett-Rossler); format: in vivo
Procedure: as §1
The β2 -mimetic activity was tested on anesthetized guinea pigs as antagonism to bronchospasm provoked by intravenous administration of 20 γ of acetylcholine per kg body weight (according to the method of Konzett-Rossler) by intravenous administration of the test compound. From the average percentage decrease of the bronchospasm produced by various doses of the test compound, a median effective dose (ED50) was determined by graphic extrapolation (see Table I).

[5] = d(+)-isomers, tachycardia by 1.0 γ/kg i.v. N-isopropyl-noradrenalin sulfate (Table III), read-out: Blocking Action on β1 -receptors ED50
[6] = deaths within 14 days, d(+)-isomers (Table III), read-out: acute toxicity LD50 (Table III)

T1 sequence (Q9TST6 whole entry): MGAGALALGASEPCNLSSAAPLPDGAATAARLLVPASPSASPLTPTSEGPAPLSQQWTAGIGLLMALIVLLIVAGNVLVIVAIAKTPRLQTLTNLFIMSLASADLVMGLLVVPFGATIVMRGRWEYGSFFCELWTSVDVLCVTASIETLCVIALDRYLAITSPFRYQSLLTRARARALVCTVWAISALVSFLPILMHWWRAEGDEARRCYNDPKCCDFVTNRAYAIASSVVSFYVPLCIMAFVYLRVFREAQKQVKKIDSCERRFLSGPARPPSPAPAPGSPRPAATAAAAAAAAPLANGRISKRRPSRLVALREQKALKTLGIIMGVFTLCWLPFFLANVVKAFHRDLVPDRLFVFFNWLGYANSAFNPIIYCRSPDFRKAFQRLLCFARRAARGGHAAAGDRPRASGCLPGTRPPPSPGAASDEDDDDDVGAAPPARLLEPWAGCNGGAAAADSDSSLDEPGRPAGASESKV
T2 sequence (Q8K4Z4 whole entry): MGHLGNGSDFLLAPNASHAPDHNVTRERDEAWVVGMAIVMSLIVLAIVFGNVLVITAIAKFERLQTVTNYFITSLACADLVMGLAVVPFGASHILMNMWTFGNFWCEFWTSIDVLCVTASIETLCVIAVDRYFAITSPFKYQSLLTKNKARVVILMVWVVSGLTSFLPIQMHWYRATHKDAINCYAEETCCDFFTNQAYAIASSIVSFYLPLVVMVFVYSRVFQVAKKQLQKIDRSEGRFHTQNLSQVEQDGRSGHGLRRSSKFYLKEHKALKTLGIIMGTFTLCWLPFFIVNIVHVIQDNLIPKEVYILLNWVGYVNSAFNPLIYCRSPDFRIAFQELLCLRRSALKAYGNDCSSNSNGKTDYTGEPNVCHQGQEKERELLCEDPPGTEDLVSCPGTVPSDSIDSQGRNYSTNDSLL

Row | Compound | ED50 [1, 5] | ED50 [2] | LD50 at 336 h [3, 6] | ED50 ([4]; guinea pig, iv, bronchospasm by 20 γ/kg acetylcholine i.v., test compound i.v., graphic extrapolation (Table I)) | Duration of activity (β2 -mimetic activity) ([4]; i.v. (Table I)) | ED50 ([1]; tachycardia by 1.0 γ/kg i.v. N-isopropyl-noradrenalin sulfate, graphic extrapolation (Table II), read-out: Blocking action on the β1 -receptors ED50) | LD50 at 336 h ([3]; deaths within 14 days (Table II), read-out: LD50)
1 | CC(C)(C)NCC(O)c1cc(F)c(N)c(Br)c1 (single isomer, unassigned) [A-d(+), d-1-(4'-amino-3'-bromo-5'-fluoro-phenyl)-2-tert.butylamino-ethanol hydrochloride] | 0.0084 mg/kg | > 2 mg/kg | 37.2 mg/kg |  |  |  | 
2 | CC(C)(C)NCC(O)c1cc(F)c(N)c(Cl)c1 (single isomer, unassigned) [D-d(+), d-1-(4'-Amino-3'-chloro-5'-fluoro-phenyl)-2-tert.butylamino-ethanol] | 0.0062 mg/kg | > 2 mg/kg | 34.2 mg/kg |  |  |  | 
3 | CC(C)(C)NCC(O)c1ccc(N)c(F)c1 (single isomer, unassigned) [E-d(+), d-1-(4'-amino-3'-fluoro-phenyl)-2-tert.butylamino-ethanol hydrochloride] | 0.0015 mg/kg | > 2 mg/kg |  |  |  |  | 
4 | CC(C)(C)NCC(O)c1cc(Cl)c(N)c(C(F)(F)F)c1 (single isomer, unassigned) [G-d(+), d-1-(4'-Amino-3'-chloro-5'-trifluoromethyl-phenyl)-2-tert.butylamino-ethanol] | 0.0125 mg/kg | > 2 mg/kg | 33.2 mg/kg |  |  |  | 
5 | CC(C)(C)NCC(O)c1cc(Cl)c(N)c([N+](=O)[O-])c1 (stereo not drawn) [Z, 1-(4'-amino-3'-chloro-5'-nitro-phenyl)-2-tert.butylamino-ethanol] |  |  |  | 0.0315 mg/kg | > 80 min | 0.0045 mg/kg | 42.4 mg/kg
